Measurements taken from the supplement of paper PMC10307832.

How the values were obtained:
Assay in all cases: relative viability (nuclei count vs DMSO), 5 days (fraction); higher = more cells survive
[1] = compound: C1=CC2=NC=CN=C2C=C1/C=C/3\C(=O)NC(=O)S3 + C[C@@H](Oc1cc(-c2cnn(C3CCNCC3)c2)cnc1N)c1c(Cl)ccc(F)c1Cl [Crizotinib] (partner 1 µM)
Outline: (§1)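 Five library-drug doses in √10 steps were combined with a fixed anchor-drug dose, or a single drug was given alone, by pin tool to lung cancer cell lines in 1536-well plates the day after seeding. Nuclei were stained and counted after 5 days. Relative viability is the nuclei count in treated wells over that in vehicle wells, taken as the median of duplicate plates.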

BGJ398 + OSI-027 = compound: CCN1CCN(c2ccc(Nc3cc(N(C)C(=O)Nc4c(Cl)c(OC)cc(OC)c4Cl)ncn3)cc2)CC1 [BGJ398] + COc1cccc2cc(-c3nc([C@H]4CC[C@H](C(=O)O)CC4)n4ncnc(N)c34)[nH]c12 [OSI-027] (partner 0.5 µM)
Outline: as §1

[2] = compound: C1=CC2=NC=CN=C2C=C1/C=C/3\C(=O)NC(=O)S3 + Nc1nc2[nH]cc(CCc3ccc(C(=O)N[C@@H](CCC(=O)O)C(=O)O)cc3)c2c(=O)[nH]1 [Pemetrexed] (partner 0.2 µM)
Outline: as §1

[3] = compound: C1=CC2=NC=CN=C2C=C1/C=C/3\C(=O)NC(=O)S3 + CCNC(=O)c1noc(-c2cc(C(C)C)c(O)cc2O)c1-c1ccc(CN2CCOCC2)cc1 [Luminespib] (partner 0.01 µM)
Outline: as §1

Cell Line	relative viability ([1]; first compound 0.02 µM)	relative viability ([1]; first compound 0.06325 µM)	relative viability ([1]; first compound 0.2 µM)	relative viability ([1]; first compound 0.6325 µM)	relative viability ([1]; first compound 2 µM)	relative viability (BGJ398 + OSI-027; first compound 0.01 µM)	relative viability (BGJ398 + OSI-027; first compound 0.03162 µM)	relative viability (BGJ398 + OSI-027; first compound 0.1 µM)	relative viability (BGJ398 + OSI-027; first compound 0.3162 µM)	relative viability (BGJ398 + OSI-027; first compound 1 µM)	relative viability ([2]; first compound 0.02 µM)	relative viability ([2]; first compound 0.06325 µM)	relative viability ([2]; first compound 0.2 µM)	relative viability ([2]; first compound 0.6325 µM)	relative viability ([2]; first compound 2 µM)	relative viability ([3]; first compound 0.02 µM)	relative viability ([3]; first compound 0.06325 µM)	relative viability ([3]; first compound 0.2 µM)	relative viability ([3]; first compound 0.6325 µM)	relative viability ([3]; first compound 2 µM)
201T	0.995	1.07	1.06	0.994	1.06	0.781	0.825	0.793	0.636	0.564	0.316	0.346	0.363	0.348	0.312	1.04	1.04	1.04	1.02	0.986
A549	0.791	0.901	0.782	0.671	0.646	–	–	–	–	–	–	–	–	–	–	–	–	–	–	–
A-427	0.848	0.792	0.939	0.866	0.843	0.375	0.365	0.309	0.235	0.285	0.963	1.03	0.959	0.96	0.903	0.978	0.958	1	0.842	0.991
ABC-1	1.15	1.05	1.21	0.91	1.09	0.435	0.505	0.442	0.403	0.408	–	–	–	–	–	–	0.872	0.616	0.519	0.982
BEN	0.948	0.856	0.929	0.795	0.871	0.319	0.259	0.279	0.266	0.276	0.824	0.813	0.773	0.836	0.644	0.631	0.19	0.402	0.332	0.314
CAL-12T	0.572	0.802	0.901	0.661	0.683	0.539	0.773	0.83	0.673	0.491	1.03	1.31	1.34	1.09	1.28	0.456	0.417	0.686	0.623	0.234
COR-L23	0.65	0.649	0.576	0.582	0.699	0.787	0.88	0.848	0.667	0.8	0.187	0.202	0.202	0.19	0.179	0.684	0.842	0.77	0.581	0.652
COR-L 105	0.613	0.887	0.905	0.814	0.711	0.644	0.441	0.704	0.519	0.654	1.13	1.14	1.08	1.12	1.02	0.727	0.997	0.816	0.695	0.618
Calu-6	0.781	0.744	0.758	0.704	0.781	–	–	–	–	–	–	–	–	–	–	–	–	–	–	–
ChaGo-K-1	1.02	0.613	1.12	1.07	1.02	0.512	0.491	0.567	0.548	0.435	0.263	0.277	0.262	0.265	0.256	0.553	0.454	0.762	0.541	0.572
EBC-1	0.17	0.217	0.21	0.178	0.171	–	–	–	–	–	–	–	–	–	–	–	–	–	–	–
EKVX	0.933	0.905	0.975	0.833	0.898	0.628	0.679	0.72	0.703	0.69	0.337	0.356	0.363	0.438	0.364	0.846	0.636	0.831	0.839	0.776
EMC-BAC-2	0.733	0.767	0.76	0.661	0.763	0.357	0.417	0.398	0.333	0.37	0.402	0.424	0.44	0.434	0.417	1.13	1.22	1.17	1.09	1.02
EPLC-272H	1.12	1.09	1.12	0.782	1.13	0.283	0.279	0.248	0.241	0.293	0.351	0.266	0.43	0.353	0.318	0.447	0.214	0.328	0.267	0.198
H3255	0.851	0.929	0.746	0.916	0.886	0.493	–	0.676	0.37	0.602	0.532	0.559	0.577	0.616	0.533	0.879	0.793	0.909	0.857	0.809
HARA	0.973	1.06	1.09	1.01	1.21	0.422	0.32	0.506	0.358	0.439	0.226	0.233	0.256	0.231	0.249	0.811	0.643	0.706	0.742	0.797
HCC-15	0.822	0.897	0.817	0.747	0.716	0.689	0.72	0.693	0.675	0.554	0.231	0.217	0.234	0.231	0.218	0.278	0.197	0.271	0.304	0.214
HCC-44	0.721	0.808	0.807	0.836	0.575	0.6	0.591	0.598	0.51	0.473	0.578	0.688	0.667	0.675	0.655	1	0.829	1.06	1.04	0.868
HCC-78	0.341	0.309	0.296	0.337	0.25	0.369	0.348	0.346	0.349	0.366	0.925	0.864	0.932	0.838	0.927	–	–	–	–	–
HCC-366	0.441	0.306	0.605	0.441	0.409	0.843	0.964	0.96	0.822	0.979	0.117	–	0.163	0.164	0.21	–	–	–	–	–

Cell Line	relative viability ([1]; first compound 0.02 µM)	relative viability ([1]; first compound 0.06325 µM)	relative viability ([1]; first compound 0.2 µM)	relative viability ([1]; first compound 0.6325 µM)	relative viability ([1]; first compound 2 µM)	relative viability (BGJ398 + OSI-027; first compound 0.01 µM)	relative viability (BGJ398 + OSI-027; first compound 0.03162 µM)	relative viability (BGJ398 + OSI-027; first compound 0.1 µM)	relative viability (BGJ398 + OSI-027; first compound 0.3162 µM)	relative viability (BGJ398 + OSI-027; first compound 1 µM)	relative viability ([2]; first compound 0.02 µM)	relative viability ([2]; first compound 0.06325 µM)	relative viability ([2]; first compound 0.2 µM)	relative viability ([2]; first compound 0.6325 µM)	relative viability ([2]; first compound 2 µM)	relative viability ([3]; first compound 0.02 µM)	relative viability ([3]; first compound 0.06325 µM)	relative viability ([3]; first compound 0.2 µM)	relative viability ([3]; first compound 0.6325 µM)	relative viability ([3]; first compound 2 µM)
HCC-827	0.89	0.905	0.933	0.804	1.03	0.633	–	0.754	0.547	0.847	0.246	0.265	0.266	0.268	0.274	0.716	0.871	0.64	0.587	0.746
HOP-62	1.1	0.953	1.03	0.93	0.911	0.792	0.986	0.916	0.83	0.889	0.319	0.368	0.299	0.355	0.307	0.725	0.831	0.904	0.9	0.922
IA-LM	0.654	–	0.857	0.998	0.718	–	–	–	–	–	–	–	–	–	–	–	–	–	–	–
LC-2-ad	0.412	0.363	0.402	0.44	0.715	0.763	0.935	0.832	0.779	0.829	0.292	0.286	0.276	0.283	0.279	0.984	0.727	1.08	1.07	0.739
LCLC-97TM1	0.391	0.344	0.375	0.354	0.218	0.381	0.578	0.464	0.567	0.528	0.138	0.199	0.187	0.152	0.152	0.767	0.839	0.823	0.671	0.499
LCLC-103H	1.08	0.943	1.06	1.03	0.925	0.495	0.406	0.44	0.367	0.382	0.464	0.438	0.473	0.448	0.447	1.02	0.966	0.906	0.966	0.806
LK-2	0.311	0.252	0.236	0.22	0.235	0.18	0.181	0.155	0.121	0.176	0.198	0.326	0.276	0.267	0.148	0.186	0.202	0.28	0.175	0.175
LOU-NH91	0.717	0.761	0.745	0.755	0.72	0.667	–	0.734	0.478	0.728	0.376	0.326	0.391	0.399	0.407	0.363	0.344	0.334	0.346	0.314
LU99A	0.613	0.597	0.564	0.415	0.431	0.268	0.284	0.281	0.308	0.332	0.167	0.131	0.165	0.176	0.166	0.296	0.207	0.294	0.267	0.24
LXF-289	0.766	0.735	0.785	0.777	0.858	0.708	0.795	0.806	0.768	0.799	0.841	0.823	0.789	0.908	0.899	0.638	0.738	0.693	0.642	0.561
NCI-H522	–	–	–	–	–	0.686	0.608	0.575	0.664	0.687	1	0.871	1.12	0.925	0.747	1.06	1.09	1.18	1.05	0.956
NCI-H727	0.768	0.842	0.75	0.794	0.517	0.595	0.791	0.543	0.519	0.745	–	–	–	–	–	0.427	0.496	0.403	0.444	0.265
NCI-H1299	0.955	1.03	0.932	0.89	0.986	–	–	–	–	–	–	–	–	–	–	–	–	–	–	–
NCI-H1395	–	–	–	–	–	0.621	0.649	0.551	0.448	0.497	0.965	0.779	0.975	0.867	0.732	0.807	0.693	0.719	0.607	0.794
NCI-H1648	–	–	–	–	–	0.245	0.292	0.246	0.26	0.235	0.648	0.576	0.649	–	0.777	–	–	–	–	–
NCI-H1703	0.638	0.701	0.656	0.811	0.674	–	–	–	–	–	–	–	–	–	–	–	–	–	–	–
NCI-H1793	–	–	–	–	–	0.326	0.309	0.241	0.229	0.243	0.726	0.74	0.837	0.727	0.715	0.201	0.188	0.169	0.169	0.174
NCI-H2342	–	–	–	–	–	0.694	0.628	0.629	0.674	0.622	0.615	0.859	0.713	0.759	0.644	0.721	0.672	0.756	0.601	0.636
SW 900	–	–	–	–	–	0.602	0.604	0.545	0.368	0.358	0.491	0.471	0.481	–	0.487	0.163	0.176	0.173	0.223	0.21
